EC50, IC50 and AC50 data for eleven compounds are collected here from ChEMBL document CHEMBL1201862, “PubChem BioAssay data set” (2004).

Activity calls are given as the source filed them. Where only a bound is given, the exact number is not on record here.

A word on the AC50: it is the concentration at which the activity in the assay is half-maximal.

The target of experiment [1] is T1, Corticotropin-releasing factor receptor 2/Corticotropin-releasing factor-binding protein (Homo sapiens, UniProt P24387+Q13324).
T1 sequence (Q13324 whole entry): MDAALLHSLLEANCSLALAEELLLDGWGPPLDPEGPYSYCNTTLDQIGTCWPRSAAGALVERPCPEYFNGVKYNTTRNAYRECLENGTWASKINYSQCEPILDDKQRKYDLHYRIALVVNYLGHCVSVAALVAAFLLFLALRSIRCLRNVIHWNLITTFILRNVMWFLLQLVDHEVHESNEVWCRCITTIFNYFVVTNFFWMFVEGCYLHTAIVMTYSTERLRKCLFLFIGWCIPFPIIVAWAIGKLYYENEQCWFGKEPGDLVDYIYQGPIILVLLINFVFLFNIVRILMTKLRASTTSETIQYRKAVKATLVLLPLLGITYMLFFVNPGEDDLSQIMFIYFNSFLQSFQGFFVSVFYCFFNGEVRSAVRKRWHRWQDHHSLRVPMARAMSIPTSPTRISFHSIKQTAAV
T1 sequence (P24387 whole entry): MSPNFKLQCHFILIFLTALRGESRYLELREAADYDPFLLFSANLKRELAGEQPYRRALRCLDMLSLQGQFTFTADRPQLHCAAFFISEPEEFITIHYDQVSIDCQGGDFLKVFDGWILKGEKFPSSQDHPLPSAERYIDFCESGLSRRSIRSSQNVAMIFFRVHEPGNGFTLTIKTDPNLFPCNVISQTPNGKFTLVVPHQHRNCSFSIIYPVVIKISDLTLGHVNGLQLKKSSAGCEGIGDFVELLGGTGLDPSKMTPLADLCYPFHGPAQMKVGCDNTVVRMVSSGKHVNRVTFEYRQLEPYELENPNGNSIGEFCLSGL
Nature of the experiment: activators of CRF receptor 2 with binding protein – uHTS hits, confirmation (AID 602473). To be noted: read-out: EC50_Mean. The class given is functional.

Experiment [2] is described as follows: blockers of CRF-binding protein–CRF-R2 complex – cell-based, uHTS hits, 384-well, dose response (AID 651639). Type of experiment: functional, Homo sapiens. The following applies: read-out: IC50_Mean.
The target of experiment [3] is T1, Corticotropin-releasing factor receptor 2/Corticotropin-releasing factor-binding protein. The experiment in a line: Dose Response confirmation of uHTS hits for small molecule antagonists of the CRF-binding protein and CRF-R2 receptor complex. Type of experiment: functional. To be noted: read-out: IC50_Mean.
A short description of experiment [4]: bead-based luminescence quenchers, dual-tagged ARNT – biochemical, AlphaScreen, cherry-pick, artefact control for ARNT-TACC3 interaction inhibitor project, dose response (AID 651705).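 Note: AlphaScreen bead proximity signal that flags compounds interfering with the detection technology; potency reflects signal decrease which marks the compound as an assay artifact.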 Type of experiment: functional. (In general: Bead proximity is the source of the signal in Alpha formats.)
The target of experiment [5] is T2, Microphthalmia-associated transcription factor (Homo sapiens, UniProt O75030).
T2 sequence (O75030 whole entry): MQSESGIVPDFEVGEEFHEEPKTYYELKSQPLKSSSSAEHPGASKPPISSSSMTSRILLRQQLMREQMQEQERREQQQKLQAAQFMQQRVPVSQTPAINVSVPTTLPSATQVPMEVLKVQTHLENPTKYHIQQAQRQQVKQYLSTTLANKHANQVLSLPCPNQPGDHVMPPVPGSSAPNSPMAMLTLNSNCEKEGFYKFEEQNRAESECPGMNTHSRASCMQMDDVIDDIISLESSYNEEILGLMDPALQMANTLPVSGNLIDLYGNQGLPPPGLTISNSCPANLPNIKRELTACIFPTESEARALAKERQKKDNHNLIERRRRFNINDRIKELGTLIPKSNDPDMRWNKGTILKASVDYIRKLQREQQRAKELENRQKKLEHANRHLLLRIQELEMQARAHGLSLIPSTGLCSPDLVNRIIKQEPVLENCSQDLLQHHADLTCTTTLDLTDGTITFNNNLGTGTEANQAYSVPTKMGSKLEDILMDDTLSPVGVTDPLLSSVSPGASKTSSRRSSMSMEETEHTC
Nature of the experiment: reducers of TRPM1 reporter luminescence, concentration series – cell-based, SK-MEL-5, cherry-picked, set 3, MITF inhibitor project, dose response (AID 493073).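 Note: SK-MEL-5 melanoma cells with luciferase driven by the MITF target TRPM1 promoter.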 Type of experiment: functional.

Experiment [6] has as its system A-375. The experiment in a line: MITF: Counter assay: A375 proliferation Measured in Cell-Based System Using Plate Reader - 2084-03_Inhibitor_Dose_DryPowder_Activity. [Related pubchem assays (depositor defined):AID488944]. Type of experiment: functional. To be noted: Homo sapiens.
For experiment [7], the target named is Melanocortin receptor 4 (Homo sapiens, UniProt P32245). The class given is functional, cell-based.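 Note: Cell-based assay with luminescence read-out, confirmatory dose-response testing for agonist activity of biased ligands at MC4R; human U2OS cells with tagged receptor and beta-arrestin; potency of agonists that increase receptor coupling to beta-arrestin.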
Experiment [8] concerns the target T3, Ubiquitin-conjugating enzyme E2 N (Homo sapiens, UniProt P61088).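 Note: Dose-response confirmation in a TR-FRET assay detecting UBC13-driven polyubiquitin chain formation, inhibition measured.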
T3 sequence (P61088 whole entry): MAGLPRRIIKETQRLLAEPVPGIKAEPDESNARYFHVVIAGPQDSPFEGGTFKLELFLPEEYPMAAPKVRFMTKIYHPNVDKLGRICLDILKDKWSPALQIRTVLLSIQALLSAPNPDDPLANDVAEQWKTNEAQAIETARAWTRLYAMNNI
Type of experiment: functional.

Experiment [9] has as its target Cytochrome P450 3A4 (Homo sapiens, UniProt P08684). The following applies: Potency.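 Note: confirmatory qHTS run detecting inhibitors and substrates of CYP3A4.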
For experiment [10], the target named is Cytochrome P450 2D6 (Homo sapiens, UniProt P10635).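 Note: CYP2D6 member of a cytochrome P450 panel assay.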
Experiment [11] addresses Tyrosine-protein phosphatase non-receptor type 5 (Homo sapiens, UniProt P54829). The experiment in a line: PTPN5 enzyme inhibition – biochemical, fluorescence intensity, uHTS hits, confirmation (AID 602372). Type of experiment: functional. The following applies: read-out: IC50_Mean.
The target of experiment [12] is Tyrosine-protein phosphatase non-receptor type 11 (Homo sapiens, UniProt Q06124). Nature of the experiment: PTPN11 enzyme inhibitors – biochemical, selectivity assay for STEP inhibitor project, dose response (AID 602367). The class given is functional. The following applies: read-out: IC50_Mean.
The target in experiment [13] is Dual specificity protein phosphatase 3 (Homo sapiens, UniProt P51452). The experiment in a line: VHR phosphatase inhibition, dose response, selectivity assay for STEP inhibitor project, biochemical (AID 602374). Type of experiment: functional. The following applies: read-out: IC50_Mean.
The test system of experiment [14] is BJ. Nature of the experiment: cells. To be noted: Homo sapiens. Type of experiment: functional, cell-based.
Experiment [15] deals with BJ. The experiment in a line: growth inhibition of engineered Ras-driven BJ cells – cell-based, alamar blue fluorescence, cherrypicked samples, dose response (AID 2631).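 Note: confirmatory dose-response assay in RAS-dependent BJ fibroblasts engineered with TERT, LT and ST, with cytotoxicity read by fluorescence.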 The class given is functional. The following applies: Homo sapiens. A general note: The colour change of resazurin is a common sign of viable cells or microbes.
The target of experiment [16] is T4, Short transient receptor potential channel 4 (Mus musculus, UniProt Q9QUQ5).
T4 sequence (Q9QUQ5 whole entry): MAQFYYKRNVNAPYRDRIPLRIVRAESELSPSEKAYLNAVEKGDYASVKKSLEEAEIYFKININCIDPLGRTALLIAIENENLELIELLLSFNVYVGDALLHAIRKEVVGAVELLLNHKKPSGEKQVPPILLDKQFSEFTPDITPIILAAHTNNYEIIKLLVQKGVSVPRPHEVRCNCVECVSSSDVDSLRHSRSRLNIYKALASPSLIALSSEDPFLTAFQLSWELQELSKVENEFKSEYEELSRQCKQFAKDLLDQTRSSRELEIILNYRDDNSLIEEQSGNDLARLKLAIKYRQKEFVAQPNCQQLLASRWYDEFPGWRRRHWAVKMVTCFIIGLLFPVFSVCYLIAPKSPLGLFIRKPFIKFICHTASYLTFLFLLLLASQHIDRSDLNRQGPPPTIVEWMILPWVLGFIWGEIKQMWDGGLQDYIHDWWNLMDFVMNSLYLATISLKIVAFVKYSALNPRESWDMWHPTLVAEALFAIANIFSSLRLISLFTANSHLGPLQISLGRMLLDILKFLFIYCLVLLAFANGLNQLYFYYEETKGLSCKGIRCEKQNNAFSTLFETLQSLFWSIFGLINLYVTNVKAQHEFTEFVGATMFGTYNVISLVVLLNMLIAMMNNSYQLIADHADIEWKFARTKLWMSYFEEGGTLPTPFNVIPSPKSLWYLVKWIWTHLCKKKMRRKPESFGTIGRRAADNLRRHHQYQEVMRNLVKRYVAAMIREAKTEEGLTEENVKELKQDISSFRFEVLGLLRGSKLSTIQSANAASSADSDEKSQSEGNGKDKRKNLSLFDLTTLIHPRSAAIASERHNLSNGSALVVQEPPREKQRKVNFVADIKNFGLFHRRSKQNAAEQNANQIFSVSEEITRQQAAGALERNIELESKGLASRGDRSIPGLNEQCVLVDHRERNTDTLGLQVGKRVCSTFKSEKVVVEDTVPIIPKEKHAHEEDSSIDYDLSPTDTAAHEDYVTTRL
Nature of the experiment: block of DAMGO-driven TRPC4 calcium entry – cell-based, HEK293 TRPC4/mu-opioid, Fluo-4 calcium, dose response (AID 434942).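 Note: potency of inhibitors blocking the TRPC4 calcium response.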 The class given is functional.

Experiment [17] is described as follows: DRD fibroblast viability loss – cell-based, non-viral oncogenic, luminescence, dose response (AID 1934). Type of experiment: functional. The following applies: Homo sapiens.
Experiment [18] relates to BJ. The experiment in a line: BJ-TERT-LT-ST fibroblast viability loss – cell-based, RAS-independent, luminescence, dose response (AID 1935).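 Note: BJ fibroblasts immortalized with TERT plus LT and ST oncogenes.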 The following applies: Homo sapiens. The class given is functional.
Experiment [19] is described as follows: luciferase reporter signal suppression in cells – H4 neuroglioma cells, luminescence, dose response (AID 1990). Type of experiment: functional, cell-based.
Experiment [20] has as its system BJ. The experiment in a line: BJ-TERT fibroblast viability loss – cell-based, RAS-independent, luminescence, dose response (AID 1933). Type of experiment: functional. To be noted: Homo sapiens.
A short description of experiment [21]: Luminescence Cell-Based Dose Response HTS to Identify Inhibitors of 5'UTR Stem-Loop Driven Prion Protein mRNA Translation in H4 Neuroglioblastoma Cells. [Related pubchem assays: 1827 (Project Summary), 1813 (Primary HTS)]. The class given is functional.
The nature of experiment [22]: alpha-synuclein stem-loop luciferase translation blockers – H4 neuroglioma cells, luminescence, confirmation (AID 1988). Type of experiment: functional, cell-based.
The target in experiment [23] is Ras and Rab interactor 1/Tyrosine-protein kinase ABL1 (Homo sapiens, UniProt P00519+Q13671). Type of experiment: functional.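 Note: biochemical TR-FRET dose-response test measuring inhibition of binding between Rin1 and Abl proteins.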
Experiment [24] can be described thus: HEK-293T viability loss after treatment – luminescence, T-cell screen hits, cytotoxicity control for TCR NF-kB inhibitor project, dose response (AID 489026).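 Note: cells exposed to compound about 14 hours before the viability readout.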 Type of experiment: functional, cell-based.

Sequence of Ras and Rab interactor 1/Tyrosine-protein kinase ABL1 (P00519 whole entry): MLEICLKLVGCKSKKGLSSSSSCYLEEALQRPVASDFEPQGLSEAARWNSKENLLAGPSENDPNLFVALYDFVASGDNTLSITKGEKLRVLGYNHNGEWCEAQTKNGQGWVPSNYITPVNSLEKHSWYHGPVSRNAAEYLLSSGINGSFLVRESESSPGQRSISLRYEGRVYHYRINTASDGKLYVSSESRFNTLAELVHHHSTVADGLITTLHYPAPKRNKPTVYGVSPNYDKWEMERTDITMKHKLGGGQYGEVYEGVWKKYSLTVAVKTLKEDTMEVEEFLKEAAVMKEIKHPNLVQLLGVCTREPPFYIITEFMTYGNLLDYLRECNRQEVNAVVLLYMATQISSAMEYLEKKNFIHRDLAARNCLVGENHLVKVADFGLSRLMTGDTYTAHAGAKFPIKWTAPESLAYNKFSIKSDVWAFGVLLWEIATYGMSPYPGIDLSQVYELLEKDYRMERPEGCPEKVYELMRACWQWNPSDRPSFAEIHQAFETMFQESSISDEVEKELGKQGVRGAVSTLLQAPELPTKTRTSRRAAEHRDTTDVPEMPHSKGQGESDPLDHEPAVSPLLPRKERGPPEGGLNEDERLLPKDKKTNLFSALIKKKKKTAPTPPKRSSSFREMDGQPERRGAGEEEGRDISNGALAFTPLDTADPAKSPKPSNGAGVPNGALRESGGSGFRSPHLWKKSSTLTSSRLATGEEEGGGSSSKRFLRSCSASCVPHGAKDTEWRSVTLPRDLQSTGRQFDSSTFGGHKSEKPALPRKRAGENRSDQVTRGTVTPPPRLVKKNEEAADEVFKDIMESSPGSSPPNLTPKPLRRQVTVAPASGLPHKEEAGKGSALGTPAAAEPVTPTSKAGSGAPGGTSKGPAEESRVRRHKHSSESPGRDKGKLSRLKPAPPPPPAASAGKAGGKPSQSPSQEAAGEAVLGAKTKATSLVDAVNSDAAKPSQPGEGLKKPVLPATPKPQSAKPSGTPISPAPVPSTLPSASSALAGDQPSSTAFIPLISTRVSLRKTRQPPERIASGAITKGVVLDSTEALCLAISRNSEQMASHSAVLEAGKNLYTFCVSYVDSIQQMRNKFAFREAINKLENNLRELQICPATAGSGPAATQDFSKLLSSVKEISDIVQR
Sequence of Ras and Rab interactor 1/Tyrosine-protein kinase ABL1 (Q13671 whole entry): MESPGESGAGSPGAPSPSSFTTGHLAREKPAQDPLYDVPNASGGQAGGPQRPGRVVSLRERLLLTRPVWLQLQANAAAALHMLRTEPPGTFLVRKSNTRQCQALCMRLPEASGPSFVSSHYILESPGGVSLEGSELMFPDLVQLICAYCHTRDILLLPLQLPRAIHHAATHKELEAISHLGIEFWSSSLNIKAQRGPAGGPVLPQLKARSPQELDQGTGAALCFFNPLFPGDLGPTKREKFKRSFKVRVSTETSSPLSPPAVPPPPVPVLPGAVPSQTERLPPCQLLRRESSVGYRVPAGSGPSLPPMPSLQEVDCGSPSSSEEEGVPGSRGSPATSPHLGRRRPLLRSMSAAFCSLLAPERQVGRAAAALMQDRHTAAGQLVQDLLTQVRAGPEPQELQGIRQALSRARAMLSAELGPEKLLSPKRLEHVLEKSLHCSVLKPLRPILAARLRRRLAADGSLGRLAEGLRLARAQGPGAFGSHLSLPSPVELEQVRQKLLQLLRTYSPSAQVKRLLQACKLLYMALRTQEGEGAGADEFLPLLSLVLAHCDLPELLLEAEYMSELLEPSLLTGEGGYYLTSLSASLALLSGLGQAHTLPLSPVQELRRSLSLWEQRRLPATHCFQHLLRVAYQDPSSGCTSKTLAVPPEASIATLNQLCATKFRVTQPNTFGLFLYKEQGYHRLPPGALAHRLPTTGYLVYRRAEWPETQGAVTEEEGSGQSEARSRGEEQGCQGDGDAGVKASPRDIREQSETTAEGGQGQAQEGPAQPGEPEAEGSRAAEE
Sequence of Melanocortin receptor 4 (P32245 whole entry): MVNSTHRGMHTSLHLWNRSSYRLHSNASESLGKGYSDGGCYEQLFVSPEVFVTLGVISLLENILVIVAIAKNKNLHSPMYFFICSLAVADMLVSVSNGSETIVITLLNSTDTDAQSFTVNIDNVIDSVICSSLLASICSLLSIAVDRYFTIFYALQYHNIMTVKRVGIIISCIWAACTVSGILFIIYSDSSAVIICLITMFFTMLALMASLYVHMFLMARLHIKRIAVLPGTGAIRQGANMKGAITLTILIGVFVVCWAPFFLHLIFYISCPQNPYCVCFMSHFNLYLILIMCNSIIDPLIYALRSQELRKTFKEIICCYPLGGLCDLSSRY
Sequence of Tyrosine-protein phosphatase non-receptor type 11 (Q06124 whole entry): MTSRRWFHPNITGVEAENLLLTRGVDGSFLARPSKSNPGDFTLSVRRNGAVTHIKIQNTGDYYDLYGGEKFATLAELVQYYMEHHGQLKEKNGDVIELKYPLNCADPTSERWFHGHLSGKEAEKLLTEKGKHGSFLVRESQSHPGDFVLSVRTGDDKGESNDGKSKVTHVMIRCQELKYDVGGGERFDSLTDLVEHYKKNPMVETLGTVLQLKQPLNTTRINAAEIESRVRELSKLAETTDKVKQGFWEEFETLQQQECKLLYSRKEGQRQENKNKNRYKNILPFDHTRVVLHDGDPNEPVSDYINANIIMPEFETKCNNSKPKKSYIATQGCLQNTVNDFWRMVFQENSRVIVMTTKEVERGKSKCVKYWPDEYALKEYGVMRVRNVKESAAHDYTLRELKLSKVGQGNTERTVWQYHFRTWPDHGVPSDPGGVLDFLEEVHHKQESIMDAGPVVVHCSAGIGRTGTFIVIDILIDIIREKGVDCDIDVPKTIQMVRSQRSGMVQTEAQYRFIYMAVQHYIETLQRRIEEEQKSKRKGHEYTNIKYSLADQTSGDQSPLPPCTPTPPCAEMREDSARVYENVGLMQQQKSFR
Sequence of Cytochrome P450 3A4 (P08684 whole entry): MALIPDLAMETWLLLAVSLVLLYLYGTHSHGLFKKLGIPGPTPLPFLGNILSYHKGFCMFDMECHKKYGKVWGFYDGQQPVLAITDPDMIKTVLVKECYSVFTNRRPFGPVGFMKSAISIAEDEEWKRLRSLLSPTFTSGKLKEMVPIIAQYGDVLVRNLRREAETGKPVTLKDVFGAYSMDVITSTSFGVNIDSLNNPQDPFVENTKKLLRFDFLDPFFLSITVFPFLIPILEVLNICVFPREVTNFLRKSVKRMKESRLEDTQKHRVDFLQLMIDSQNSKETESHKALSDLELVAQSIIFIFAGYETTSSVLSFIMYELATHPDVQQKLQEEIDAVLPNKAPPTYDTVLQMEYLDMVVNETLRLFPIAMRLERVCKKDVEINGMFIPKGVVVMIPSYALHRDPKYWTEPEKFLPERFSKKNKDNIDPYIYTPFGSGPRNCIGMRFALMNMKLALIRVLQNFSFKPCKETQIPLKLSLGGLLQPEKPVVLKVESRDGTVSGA
Sequence of Cytochrome P450 2D6 (P10635 whole entry): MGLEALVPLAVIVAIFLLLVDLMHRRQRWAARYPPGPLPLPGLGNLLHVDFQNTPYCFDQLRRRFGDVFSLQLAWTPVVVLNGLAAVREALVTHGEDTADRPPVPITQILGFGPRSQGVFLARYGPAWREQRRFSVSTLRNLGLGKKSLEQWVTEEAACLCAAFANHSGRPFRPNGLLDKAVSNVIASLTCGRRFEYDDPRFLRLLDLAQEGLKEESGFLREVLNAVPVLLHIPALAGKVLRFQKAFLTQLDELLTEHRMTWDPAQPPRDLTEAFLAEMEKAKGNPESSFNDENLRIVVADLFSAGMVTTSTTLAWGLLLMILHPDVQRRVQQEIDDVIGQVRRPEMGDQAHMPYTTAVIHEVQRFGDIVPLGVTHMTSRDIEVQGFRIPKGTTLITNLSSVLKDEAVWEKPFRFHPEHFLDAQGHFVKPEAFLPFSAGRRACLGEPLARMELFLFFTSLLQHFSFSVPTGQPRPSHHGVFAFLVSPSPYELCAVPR
Sequence of Dual specificity protein phosphatase 3 (P51452 whole entry): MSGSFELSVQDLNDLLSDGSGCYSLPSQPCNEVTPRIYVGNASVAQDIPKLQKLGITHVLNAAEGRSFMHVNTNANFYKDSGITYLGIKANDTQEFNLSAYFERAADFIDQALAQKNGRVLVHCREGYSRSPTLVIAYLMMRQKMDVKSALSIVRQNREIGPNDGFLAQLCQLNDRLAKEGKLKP
Sequence of Tyrosine-protein phosphatase non-receptor type 5 (P54829 whole entry): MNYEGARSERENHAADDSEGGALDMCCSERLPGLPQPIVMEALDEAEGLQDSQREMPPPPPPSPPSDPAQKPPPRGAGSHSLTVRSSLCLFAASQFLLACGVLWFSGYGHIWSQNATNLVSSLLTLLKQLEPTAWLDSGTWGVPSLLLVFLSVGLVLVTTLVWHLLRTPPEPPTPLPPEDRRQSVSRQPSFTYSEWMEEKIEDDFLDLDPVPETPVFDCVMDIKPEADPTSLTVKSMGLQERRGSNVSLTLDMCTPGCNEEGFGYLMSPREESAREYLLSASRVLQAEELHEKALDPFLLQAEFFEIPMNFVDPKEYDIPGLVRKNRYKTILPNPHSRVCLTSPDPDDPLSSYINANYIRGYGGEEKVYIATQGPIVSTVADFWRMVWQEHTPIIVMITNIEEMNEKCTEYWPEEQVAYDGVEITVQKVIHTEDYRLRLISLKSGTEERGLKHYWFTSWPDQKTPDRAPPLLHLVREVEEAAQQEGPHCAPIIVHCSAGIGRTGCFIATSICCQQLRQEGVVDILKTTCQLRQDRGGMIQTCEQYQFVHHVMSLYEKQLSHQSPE

For the compound `Cc1ccc(N(C(=O)c2nsc(Cl)c2Cl)C(C(=O)NC2CCCC2)c2ccc(O)cc2)cc1C` (stereo not drawn), in experiment [1], the EC50 is > 53 µM (inactive). Also, the results for the IC50 in [2] and in experiment [3] were > 20 µM (inactive) and 5.91 µM (active), respectively.
Regarding `NNc1ccc(S(=O)(=O)N2CCCCC2)cn1`, in [4], the half-maximal activity concentration (AC50) was 87.7 µM (active).
On to `CCCCCCCNC(=O)C1(CC2CC(c3ccc(Cl)cc3)=NO2)CCNCC1` (stereo not drawn), for which the concentration at half-maximal activity (AC50) is 14 µM (active) in [5] and 19.9 µM (active) in experiment [6]. Also, the EC50 in [7] was > 89.2 µM (inactive). Also, the IC50 in experiment [8] was > 20 µM (inactive).
As to `Cc1nnc(NC(=O)c2ccc(S(=O)(=O)N3CC(C)OC(C)C3)cc2)o1` (stereo not drawn), in experiment [4], the AC50 was 122 µM (active).
`Oc1cc(Cl)c(Cl)c(Cl)c1`: the EC50 in [1] is > 53 µM (inactive). Moreover, the concentration at half-maximal activity (AC50) in [9] is 12.6 µM (inconclusive). Further, the IC50 in [2] is > 20 µM (inactive); in experiment [3] it was 9.09 µM (active).
For the compound `OCCN1CCN(C(=S)c2ccc(Br)cc2)CC1`, the half-maximal activity concentration (AC50) in experiment [10] is 0.0224 µM (inconclusive). The IC50 in experiment [11] was 20.1 µM (inactive); in experiment [12], 3.34 µM (active); in experiment [13], 1.3 µM (active).
With `COc1ccc2c(c1)sc(N)[n+]2Cc1cc(C)cc2cccnc12`, the EC50 is 1.55 µM (inconclusive) in [14]; 0.605 µM (active) in experiment [15]; 1.33 µM (active) in experiment [16]; 1.61 µM (active) in experiment [17]; 1.5 µM (inconclusive) in experiment [18]; 7.07 µM (inconclusive) in [19]. Besides, the EC50 is 1.98 µM (active) in [20], 8.01 µM (active) in [21] and 0.2 µM (active) in [22].
Take `COc1ccc(Cl)cc1NC(=O)CN(C)C(=O)c1cc(-c2ccncc2)nc2ccccc12`: the IC50 in experiment [23] was 1.86 µM (active).
On to `COc1cccc(-c2cnc3c(NC=O)cc(-c4ccoc4)cn23)c1`, for which the EC50 in experiment [7] was > 89.2 µM (inactive).
On to `O=C(N/N=C/c1ccccc1Cl)c1[nH]c2ccc(Br)cc2c1-c1ccccc1`, for which the EC50 is 27.5 µM (active) in experiment [14]; 0.2 µM (active) in [15]; 0.615 µM (active) in experiment [17]; 0.748 µM (inconclusive) in [18]; 0.304 µM (active) in experiment [19]; 0.608 µM (active) in experiment [20]. Further, the EC50 is 0.136 µM (active) in experiment [21] and 0.163 µM (active) in [22]. Moreover, in experiment [24], the IC50 is > 80 µM (inactive).
Consider `O=C(Cc1ccc(NC(=O)C2CCN(C(=O)C3CCC3)CC2)cc1)Nc1ccc(C(=O)N2CCOCC2)cc1`, for which, in [23], the IC50 is 16.5 µM (inactive).
